In US20070196406A1, “1,3-Dimethylbutyl carboxanilides for controlling undesirable micro-organisms” (priority 2003, published 2007) one finds Efficacy in % and pest or weed control data, which are given here for 7 molecules.

The subject of one test is Sphaerotheca fuliginea. The test is described as follows: Sphaerotheca test (cucumber)/protective. The test is classed as in vivo. Particulars: cucumber plants, protective spray, 750 g/ha, evaluation 7 days after inoculation. As to the method: Sphaerotheca Test (Cucumber)/Protective
Solvent: 49 parts by weight of N,N-dimethylformamide
Emulsifier: 1 part by weight of alkylaryl polyglycol ether
(§1) To produce a suitable preparation of active compound, 1 part by weight of active compound is mixed with the stated amounts of solvent and emulsifier, and the concentrate is diluted with water to the desired concentration.
To test for protective activity, young cucumber plants are sprayed with the preparation of active compound at the stated application rate. One day after the treatment, the plants are inoculated with a spore suspension of Sphaerotheca fuliginea. The plants are then placed in a greenhouse at 70% relative atmospheric humidity and a temperature of 23° C.
Evaluation is carried out 7 days after the inoculation. 0% means an efficacy which corresponds to that of the control, whereas an efficacy of 100% means that no infection is observed.

The next test relates to Botrytis cinerea. The experiment in a line: Botrytis test (bean)/protective. The test is classed as in vivo. Particulars: 48 h, bean plants, protective spray, evaluation two days after inoculation, read-out: Efficacy in %. As to the method: Botrytis Test (Bean)/Protective
• Solvents: 24.5 parts by weight of acetone • 24.5 parts by weight of dimethylacetamide • Emulsifier: 1 part by weight of alkylaryl polyglycol ether
as §1
To test for protective activity, young plants are sprayed with the preparation of active compound at the stated application rate. After the spray coating has dried on, 2 small pieces of agar colonized by Botrytis cinerea are placed under each leaf. The inoculated plants are placed in a dark chamber at about 20° C. and 100% relative atmospheric humidity.
Two days after the inoculation, the size of the infected areas on the leaves is evaluated. 0% means an efficacy which corresponds to that of the control, whereas an efficacy of 100% means that no infection is observed.

In the test on Sphaerotheca fuliginea, `Cc1sccc1C(=O)Nc1ccc(F)cc1C(C)CC(C)C` (stereo not shown) [drawing 133] returned an Efficacy in % of 100%.
In turn, `CC(C)CC(C)c1ccccc1NC(=O)c1cn(C)nc1Cl` (stereo not shown) [drawing 131] had an Efficacy in % with Sphaerotheca fuliginea of 100%.
Same read-out and setting: next, `CC(C)CC(C)c1cc(F)ccc1NC(=O)c1cn(C)nc1C(F)(F)F` (stereo not shown) [drawing 132]: 100%.
For the molecule `Cc1sccc1C(=O)Nc1ccccc1C(C)CC(C)C` (stereo not shown) [drawing 107], in the test on Botrytis cinerea, the pest or weed control at 100 g/ha was 97%.
`CC(C)CC(C)c1ccccc1NC(=O)c1cn(C)nc1Cl` (stereo not shown) [drawing 108]: the pest or weed control at 100 g/ha in the test with Botrytis cinerea is 100%.
For `CC(C)CC(C)c1ccccc1NC(=O)c1scnc1Cl` (stereo not shown) [drawing 106], the pest or weed control at 100 g/ha in the test on Botrytis cinerea amounted to 99%.
With `CC(C)CC(C)c1cc(F)ccc1NC(=O)c1cn(C)nc1C(F)(F)F` (stereo not shown) [drawing 110], the pest or weed control at 500 g/ha in the test on Botrytis cinerea (500 g/ha) was 99%.
